Calls of active or inactive are those of the source.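 The calls were made as follows: active = MAPK1 kinase protein level shifted by at least 30% from solvent-only cells, either down or up; inactive = shift in protein level under 30% either way.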

In this experiment the target is Mitogen-activated protein kinase 1 (Homo sapiens) (UniProt P28482). The experiment can be described thus: MAPK1 abundance shift in treated cells – cell-based, HCT116 colorectal carcinoma, chemiluminescent western blot, counter-screen for KLF5 inhibitor project, late-stage follow-up (AID 588642). Particulars: HCT116 ERK1/2 protein level, 24 h, at 10 µM, stronger effect = higher value.
Chain of Mitogen-activated protein kinase 1 (Homo sapiens) (P28482 whole entry, looked up): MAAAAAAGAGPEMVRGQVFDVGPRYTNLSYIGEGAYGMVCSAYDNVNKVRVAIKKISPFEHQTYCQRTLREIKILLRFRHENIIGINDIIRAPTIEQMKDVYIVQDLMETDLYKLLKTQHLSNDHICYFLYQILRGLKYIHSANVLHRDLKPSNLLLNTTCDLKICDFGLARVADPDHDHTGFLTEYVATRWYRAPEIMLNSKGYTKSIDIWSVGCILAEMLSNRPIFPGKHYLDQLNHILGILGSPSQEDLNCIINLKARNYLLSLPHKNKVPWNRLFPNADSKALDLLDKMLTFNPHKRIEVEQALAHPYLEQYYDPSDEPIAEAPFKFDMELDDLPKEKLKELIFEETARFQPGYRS
`CN(C(=O)CNC(=O)/C=C/c1cccc(Cl)c1)C1CCS(=O)(=O)CC1`: the inhibition was 3.03% (inactive). With `CN(C(=O)CNC(=O)/C=C/c1cccc(Cl)c1)C1CCS(=O)(=O)C1` (stereo not drawn), the inhibition is 5.48% (inactive). As for `CN(C(=O)COC(=O)/C=C/c1cccc([N+](=O)[O-])c1)C1CCS(=O)(=O)C1` (stereo not drawn), the inhibition is 4.62% (inactive).

The values are drawn from PubChem BioAssay AID588642 (The Scripps Research Institute Molecular Screening Center, 2011).
